Measurements as given in patent publication US7683055B2, “Lanthionine-related compounds for the treatment of inflammatory diseases” (Oklahoma Medical Research Foundation, priority 2006, dated 2010).

Assays:
[1] = system: SHSY5Y dopaminergic neuroblastoma cells; test: rotenone toxicity in SHSY5Y cells; assay type: cell-based; settings: 30 min pretreatment
Experimental: FIG. 15. (R)-LKE1 protects SHSY5Y dopaminergic neuroblastoma cells against rotenone toxicity. In this experiment SHSY5Y cultures were treated with (R)-LKE1 for 30 min. prior to addition of rotenone, then assayed for viability at various later time points. The percent change in 24 hour cell viability was measured in the presence and absence of (R)-LKE1 at difference rotenone concentrations. “LKE” refers to (R)-LKE1.
For example, the methods and compounds of present invention are expected to by useful for treating Parkinson's disease in an individual. […] In this experiment SHSY5Y cultures were treated with (R)-LKE1 for 30 min. prior to addition of rotenone, then assayed for viability at various later time points.

G93A-SOD1 mice = test: G93A-SOD1 mouse model of ALS (rotarod, weight); assay type: in vivo; settings: 100 mg/kg i.p. 5 days/week from day 90
Source text: Transgenic mice. Mice expressing high copy numbers of human mutant G93A-SOD1 (SOD1^G93A mice) were obtained from Jackson Laboratories [Bar Harbor Me. USA; strain designation B6SJL-TgN-(SOD1 G93A)-1-Gur] (Hensley et al., 2002; Hensley et al., 2003; West et al., 2004; Hensley et al., 2006). Transgenic mice were maintained in the hemizygous state by mating SOD1^G93A males with B6SJL-TGN females. Animals were housed in the Oklahoma Medical Research Foundation Laboratory Animal Resource Center.
Mice were trained to a rotarod task at 80 d of age. In this task mice were placed on a horizontal rod that rotates with acceleration at 10 rpm from rest (Hensley et al., 2002; Hensley et al., 2003; West et al., 2004). The time was recorded at which each mouse fell from the rotarod and the test was repeated four times on each trial date. The closest three performance times were averaged for each mouse on each day. For experimental drug treatments mice were injected with LKE at 100 mg/kg/day i.p. Monday-Friday beginning at 90 d. Control animals received saline vehicle. Rotarod performance and weights were recorded at 10 day intervals until death. Animals were euthanized when unable to right themselves within 10 seconds of being placed on their side, or when unable to perform the rotarod task.

C6 glioma cells = C6 glioma cells implanted in rat neocortex; assay type: in vivo, Sprague-Dawley rats; settings: 100 mg/day, 7 days/week from implantation
Experimental: FIG. 16. […] 100,000 C6 glioma cells were implanted in the neocortex of adult male Sprague-Dawley rats. The test group was administered (R)-LKE1 in saline 100 mg/day at each of 7 days/week starting the day of implantation.

EOC-20 microglia = test: TNFα-stimulated nitrite production in EOC-20 microglia (Griess assay); assay type: cell-based, mouse
Experimental: Mouse EOC-20 microglia (American Tissue Type Collection, Gaithersville Md. USA) (Hensley et al., 2003; Walker et al., 1995) were grown in DMEM containing 20% L929 fibroblast-supplemented medium. Nitrite production by cytokine stimulated microglia was measured in cell culture medium using the Griess diazotization reaction as previously reported (Hensley et al., 2003; West et al., 2004).
The efficacy of (R)-LKE1 and (R)-LK as inhibitors of microglial cell activation in response to pro-inflammatory cytokines is shown in FIGS. 1A & 1B. EOC-20 murine microglial cells were pretreated 30 minutes with test compounds (e.g. (R)-LK or (R)-LKE1) dissolved in DMSO and diluted 1:200 into cell culture medium; or with DMSO vehicle only. Cells were then challenged with cytokine and allowed to incubate undisturbed in the cell culture incubator for 24 h prior to Griess assay. The lanthionine ketimine ester in this case is the structure shown above as (R)-LKE1. After drug treatment cells were then stimulated with 40 ng/mL recombinant murine tumor necrosis factor alpha (TNF α) plus 50U/mL interferon gamma (IFNγ). Nitrite (NO2^−) was measured in the cell culture medium 24 hours later, as an index of nitric oxide production. Cell viability was then assayed in the same cultures using a commercially available tetrazolium reduction assay (Promega OneStep™; Promega, Gaithersburg Md.). Cell culture methods were those published by the inventor (Hensley et al., 2003; West et al., 2004).
In a EOC-20 microglial assay the cells were stimulated with TNFα in the presence or absence of 100 microM (R)- or (S)-LK, and nitrite was measured 24 h later, the net suppression of nitrite was 13% by (S)-LK and 15% by (R)-LK.
The reduced lanthionine ketimine (i.e., TMDCA) was also tested against TNFα-stimulated nitrite production in the EOC-20 screen.

[2] = system: mice treated with E. coli LPS 0127:B8; test: LPS sepsis mouse model, viability; assay type: in vivo; settings: for Dead/alive: 40 mg/kg LPS + 100 mg/kg i.p. daily
Experimental: Six mice were treated with 40 mg/kg E. coli LPS 0127:B8 and co-treated with 100 mg/kg (R)-LKE1 i.p., daily. Viability was compared to a control group, receiving only LPS.

Question: Which “protection from rotenone toxicity” value [1] does the source give for CCOC(=O)[C@@H]1CSCC(C(=O)O)=N1 [(R)-LKE1] here?
Answer: The value was “protecting SHSY5Y cells from rotenone toxicity”.

Question: And the rotarod performance (G93A-SOD1 mice)?
Answer: The rotarod performance was “improved”.

Question: What about the weight loss (G93A-SOD1 mice) of the same compound?
Answer: Its weight loss is “inhibited weight loss”.

Question: What about the tumor cell proliferation (C6 glioma cells) of the same compound?
Answer: Its tumor cell proliferation is “inhibits tumor cell proliferation”.

Question: And the “potency at suppressing cytokine activation relative to unesterified lanthionine ketimine” value (EOC-20 microglia; FIG. 1A)?
Answer: Its value is “statistically significantly more potent”.

Question: What about the “inhibition of nitrite production” value (EOC-20 microglia; TNFα-stimulated EOC-20 microglia) of the same compound?
Answer: Its value is “inhibited nitrite production”.

Question: What about the Dead/alive ([2]; 0 h) of the same compound?
Answer: Its Dead/alive is 0/6.

Question: And the Dead/alive ([2]; 18 h)?
Answer: The Dead/alive was 2/4.

Question: And the Dead/alive ([2]; 36 h)?
Answer: Its Dead/alive is 3/3.

Question: And the Dead/alive ([2]; 48 h)?
Answer: Its Dead/alive is 4/2.

Question: And the Dead/alive ([2]; 72 h)?
Answer: The Dead/alive was 4/2.

Question: And the “chance of surviving the LPS model conditions” value ([2]; co-treated)?
Answer: Its value is “higher chance of surviving”.
